# Assay results taken from article PMC6407576, “Synthesis and evaluation of anticancer, antiphospholipases, antiproteases, and antimetabolic syndrome activities of some 3H-quinazolin-4-one derivatives” (Journal of Enzyme Inhibition and Medicinal Chemistry, 2019).
# Legend:
# [1] = biological target: T1, human group X (hG-X) sPLA2 (Homo sapiens, UniProt O15496); assay: In vitro antiphospholipase activity; type: biochemical; conditions: 20 min preincubation, lecithin substrate, pH 7.6; for IC50: read-out: mean IC50 against hG-X (converted)
# T1 sequence (O15496 43-165): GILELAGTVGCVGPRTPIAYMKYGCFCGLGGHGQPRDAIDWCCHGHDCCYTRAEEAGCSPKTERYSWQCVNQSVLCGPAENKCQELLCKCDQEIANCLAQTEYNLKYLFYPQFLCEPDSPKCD
# thrombin = thrombin (Homo sapiens, UniProt P00734); assay: In vitro antiprotease activity; type: biochemical; conditions: 15 min preincubation; read-out: mean IC50 against Thrombin (converted)
# Protocol: (§1) The inhibitory effects of 21 3H-quinazolin-4-one derivatives on several available therapeutically important proteases such as cathepsin-B, collagenase, elastase, thrombin, and trypsin were investigated. […] The protease inhibitory activity was expressed as inhibition percentage, which was determined by comparison with a control experiment. The results were expressed as IC50 values that were determined from the standard curve. A protease inhibitor cocktail (Sigma) was used as the positive control.
# cathepsin-B = cathepsin-B (Homo sapiens, UniProt P07858); assay: In vitro antiprotease activity; type: biochemical; conditions: 15 min preincubation; read-out: mean IC50 against Cathepsin-B (converted)
# Protocol: as §1
# trypsin = biological target: T2, trypsin (Bos taurus, UniProt P00760); assay: In vitro antiprotease activity; type: biochemical; conditions: 15 min preincubation; read-out: mean IC50 against Trypsin (converted)
# T2 construct: gene PRSS1
# T2 sequence (P00760 24-246): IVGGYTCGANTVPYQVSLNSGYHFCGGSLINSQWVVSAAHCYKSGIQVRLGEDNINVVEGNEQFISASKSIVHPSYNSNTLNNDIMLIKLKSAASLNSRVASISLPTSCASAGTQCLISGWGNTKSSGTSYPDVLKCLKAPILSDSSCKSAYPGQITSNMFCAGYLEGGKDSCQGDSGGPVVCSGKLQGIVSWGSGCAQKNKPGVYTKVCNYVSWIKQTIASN
# Protocol: as §1
# collagenase = assay: In vitro antiprotease activity; type: biochemical; conditions: 15 min preincubation
# Protocol: as §1
# elastase = assay: In vitro antiprotease activity; type: biochemical; conditions: 15 min preincubation
# Protocol: as §1
# [2] = biological target: T3, human group V (hG-V) sPLA2 (Homo sapiens, UniProt P39877); assay: In vitro antiphospholipase activity; type: biochemical; conditions: 20 min preincubation, lecithin substrate, pH 7.6; for IC50: read-out: mean IC50 against hG-V (converted)
# T3 sequence (P39877 21-138): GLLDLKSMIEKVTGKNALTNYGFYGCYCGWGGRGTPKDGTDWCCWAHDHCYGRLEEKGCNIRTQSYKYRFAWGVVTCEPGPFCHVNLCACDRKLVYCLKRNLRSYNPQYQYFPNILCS
# [3] = biological target: Apis mellifera bee venom (AmPLA2) (Apis mellifera, UniProt P00630); assay: biochemical
# Apis mellifera bee venom (AmPLA2), sequence (P00630 34-167 limits assumed): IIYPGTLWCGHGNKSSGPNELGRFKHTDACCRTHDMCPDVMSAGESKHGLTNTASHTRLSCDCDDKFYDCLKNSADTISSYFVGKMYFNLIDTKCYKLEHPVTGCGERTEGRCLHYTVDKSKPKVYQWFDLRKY
# [4] = biological target: T4, human group IIA (hG-IIA) sPLA2 (Homo sapiens, UniProt P14555); assay: In vitro antiphospholipase activity; type: biochemical
# T4 sequence (P14555 21-144): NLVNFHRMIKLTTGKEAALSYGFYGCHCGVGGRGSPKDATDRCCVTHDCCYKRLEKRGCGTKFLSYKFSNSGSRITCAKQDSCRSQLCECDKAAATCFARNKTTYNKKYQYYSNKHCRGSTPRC
# [5] = biological target: Naja mossambica mossambica sPLA2 (NmPLA2); assay: In vitro antiphospholipase activity; type: biochemical; conditions: 20 min preincubation, lecithin substrate, pH 7.6
# xanthine oxidase = xanthine oxidase (Homo sapiens, UniProt P47989); assay: In vitro inhibition of xanthine oxidase; type: biochemical
# xanthine oxidase, sequence (P47989 whole entry, species assumed): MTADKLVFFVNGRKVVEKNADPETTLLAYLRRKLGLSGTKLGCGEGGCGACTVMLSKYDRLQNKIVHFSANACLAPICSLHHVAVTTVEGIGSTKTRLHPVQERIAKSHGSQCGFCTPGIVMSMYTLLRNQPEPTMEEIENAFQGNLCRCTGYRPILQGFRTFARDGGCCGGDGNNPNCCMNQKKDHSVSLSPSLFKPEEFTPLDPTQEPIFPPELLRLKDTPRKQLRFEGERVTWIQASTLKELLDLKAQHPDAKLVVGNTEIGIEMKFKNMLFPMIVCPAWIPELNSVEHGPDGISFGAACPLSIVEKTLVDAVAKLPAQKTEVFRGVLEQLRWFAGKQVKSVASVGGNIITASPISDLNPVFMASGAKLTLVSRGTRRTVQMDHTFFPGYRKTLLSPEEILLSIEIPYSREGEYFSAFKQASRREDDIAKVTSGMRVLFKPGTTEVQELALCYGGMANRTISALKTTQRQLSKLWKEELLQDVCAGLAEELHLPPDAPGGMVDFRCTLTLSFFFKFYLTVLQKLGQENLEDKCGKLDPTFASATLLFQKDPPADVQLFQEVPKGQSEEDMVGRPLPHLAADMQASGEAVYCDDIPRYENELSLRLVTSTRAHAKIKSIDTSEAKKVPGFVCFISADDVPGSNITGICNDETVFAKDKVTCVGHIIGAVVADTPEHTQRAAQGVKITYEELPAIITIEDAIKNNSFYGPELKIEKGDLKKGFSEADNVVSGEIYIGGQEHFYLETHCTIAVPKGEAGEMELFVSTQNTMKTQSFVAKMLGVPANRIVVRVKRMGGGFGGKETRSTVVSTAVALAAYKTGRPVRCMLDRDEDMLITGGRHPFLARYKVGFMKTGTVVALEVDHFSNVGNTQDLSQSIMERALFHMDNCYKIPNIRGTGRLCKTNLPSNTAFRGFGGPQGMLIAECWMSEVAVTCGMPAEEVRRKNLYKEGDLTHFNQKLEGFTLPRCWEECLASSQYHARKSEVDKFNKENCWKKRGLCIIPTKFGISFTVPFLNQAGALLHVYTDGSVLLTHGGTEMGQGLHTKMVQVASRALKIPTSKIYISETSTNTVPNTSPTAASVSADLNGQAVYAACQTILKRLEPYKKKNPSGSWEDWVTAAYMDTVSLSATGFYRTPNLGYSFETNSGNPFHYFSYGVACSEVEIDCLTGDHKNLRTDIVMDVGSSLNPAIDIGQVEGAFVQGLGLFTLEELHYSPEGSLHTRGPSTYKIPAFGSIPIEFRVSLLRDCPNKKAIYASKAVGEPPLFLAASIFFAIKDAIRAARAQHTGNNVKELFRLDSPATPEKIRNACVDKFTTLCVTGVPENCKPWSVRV
# Protocol: The xanthine oxidase inhibitory activities of the examined chemical compounds were determined by following the formation of uric acid from xanthine according to the reported method by Bondet and co-workers[46]. […] The results were expressed as IC50 determined from the curve.
SMILES,IC50 [1],IC50 (thrombin),IC50 (cathepsin-B),IC50 (trypsin),mean IC50 against Collagenase (collagenase),mean IC50 against Elastase (elastase),IC50 [2],IC50 [3],IC50 [4],mean IC50 against NmPLA2 [5],melting point,IC50 (xanthine oxidase),mean IC50 against hG-X [1],mean IC50 against hG-V [2]
"COc1cc(-n2c(C)nc3ccc(Cl)cc3c2=O)cc(OC)c1OC [Compound 5c, 6 -Chloro-2-methyl-3–(3,4,5-trimethoxy-phenyl)-3H-quinazolin-4-one]",26.3 µM,6.93 µM,34.6 µM,6.24 µM,21.50 ± 2.12 µg/mL,1.75 ± 0.05 µg/mL,38.1 µM,12.6 µM,57.5 µM,5.15 ± 0.92 µg/mL,188 to 190 °C,36 µM,–,–
"Cc1nc2ccc(Br)cc2c(=O)n1/N=C/c1ccc2ccccc2c1 [Compound 8b, (E)-6-Bromo-2-methyl-3-[(naphthalen-2-ylmethylene)-amino]-3H-quinazolin-4-one]",33.1 µM,42.1 µM,54.8 µM,65 µM,4.25 ± 1.06 µg/mL,21.50 ± 2.12 µg/mL,54.8 µM,18.5 µM,42.3 µM,16.25 ± 1.06 µg/mL,–,25.5 µM,–,–
"Cc1nc2ccccc2c(=O)n1/N=C/c1ccc(-c2ccccn2)cc1 [Compound 8c, (E)-2-Methyl-3-[(4-pyridin-2-yl-benzylidene)-amino]-3H-quinazolin-4-one]",69.8 µM,69 µM,36.7 µM,103 µM,23.50 ± 0.71 µg/mL,32.00 ± 2.83 µg/mL,30.8 µM,16.5 µM,22.2 µM,7.60 ± 0.85 µg/mL,188 to 190 °C,11.8 µM,–,–
"Cc1nc2ccc(Br)cc2c(=O)n1/N=C/c1ccc(-c2ccccn2)cc1 [Compound 8d, (E)-6-Bromo-2-methyl-3-[(4-pyridin-2-yl-benzylidene)-amino]-3H-quinazolin-4-one]",15.7 µM,37 µM,82.3 µM,54.9 µM,3.00 ± 0.01 µg/mL,26.00 ± 1.41 µg/mL,22.3 µM,10.5 µM,13.7 µM,6.55 ± 0.78 µg/mL,209 to 210 °C,23.9 µM,–,–
"COc1cccc(/C=N/n2c(C)nc3ccccc3c2=O)c1[N+](=O)[O-] [Compound 8e, (E)-3-[(3-Methoxy-2-nitro-benzylidene)-amino]-2-methyl-3H-quinazolin-4-one]",34.7 µM,4.43 µM,6.95 µM,2.51 µM,15.50 ± 2.12 µg/mL,1.25 ± 0.05 µg/mL,70.2 µM,22.5 µM,49.1 µM,7.75 ± 0.35 µg/mL,178 to 180 °C,102 µM,–,–
"Cc1nc2ccccc2c(=O)n1/N=C/c1ccc(C#N)cc1 [Compound 8g, (E)-4-[(2-Methyl-4-oxo-4H-quinazolin-3-ylimino)-methyl]-benzonitrile]",79.8 µM,48.6 µM,25.1 µM,46.8 µM,17.25 ± 1.77 µg/mL,11.00 ± 0.41 µg/mL,117 µM,46.8 µM,95.4 µM,12.75 ± 1.06 µg/mL,222 to 224 °C,257 µM,–,–
"Cc1nc2ccc(Br)cc2c(=O)n1/N=C/c1ccc(C#N)cc1 [Compound 8h, (E)-4-[(6-Bromo-2-methyl-4-oxo-4H-quinazolin-3-ylimino)-methyl]-benzonitrile]",112 µM,66.7 µM,10.9 µM,91.2 µM,14.50 ± 2.12 µg/mL,27.50 ± 2.12 µg/mL,92.6 µM,79 µM,120 µM,22.90 ± 1.27 µg/mL,228 to 230 °C,154 µM,–,–
Cc1nc2ccccc2c(=O)n1/N=C/c1ccc(-c2ccccc2)cc1 [Compound 8i],50.1 µM,51.6 µM,10.3 µM,36.8 µM,15.25 ± 1.06 µg/mL,13.50 ± 2.12 µg/mL,67.8 µM,27.7 µM,45.4 µM,11.00 ± 1.41 µg/mL,–,25 µM,–,–
"Cc1nc2ccccc2c(=O)n1NC(=O)OCC(C)C [Compound 10, (2-methyl-4-oxo-4H-quinazolin-3-yl)-carbamic acid isobutyl ester]",34.5 µM,8.54 µM,81.7 µM,4 µM,28.00 ± 1.41 µg/mL,1.45 ± 0.21 µg/mL,62.7 µM,16.3 µM,56.3 µM,13.45 ± 0.78 µg/mL,168 to 170 °C,109 µM,–,–
"Cc1nc2ccccc2c(=O)n1/N=C/N(C)C [Compound 12, (E)-N,N-dimethyl-N′-(2-methyl-4-oxo-4H-quinazolin-3-yl)-formamidine]",141 µM,23.9 µM,119 µM,56.5 µM,35.50 ± 2.12 µg/mL,8.50 ± 2.12 µg/mL,150 µM,122 µM,200 µM,35.00 ± 2.83 µg/mL,100 to 102 °C,91.2 µM,–,–
Cc1cccc(NC(=O)CSc2nc3ccccc3c(=O)n2-c2ccccc2)c1C [Compound 15e],17.4 µM,57.8 µM,3.85 µM,81.8 µM,4.50 ± 0.71 µg/mL,31.50 ± 2.12 µg/mL,32.2 µM,21.1 µM,34.9 µM,11.00 ± 1.41 µg/mL,–,98.7 µM,–,–
"Cc1ccc2nc(SCC(=O)Nc3cccc(C)c3C)n(-c3ccccc3)c(=O)c2c1 [Compound 15f, N-(2,3-Dimethyl-phenyl)-2-(6-methyl-4-oxo-3-phenyl-3,4-dihydro-quinazolin-2-ylsulfanyl) -acetamide]",51.2 µM,40.7 µM,9.31 µM,39.6 µM,10.50 ± 2.12 µg/mL,16.00 ± 1.41 µg/mL,70.1 µM,86.7 µM,90.8 µM,33.00 ± 2.83 µg/mL,218 to 220 °C,136 µM,–,–
"CC1(C)CC[C@]2(C(=O)O)CC[C@]3(C)C(=CC[C@@H]4[C@@]5(C)CC[C@H](O)C(C)(C)[C@@H]5CC[C@]43C)[C@@H]2C1 [Oleanolic acid, reference compound]",–,–,–,–,–,–,–,9.2 µM,–,4.90 ± 0.42 µg/mL,–,–,7.55 ± 0.64 µg/mL,7.50 ± 0.71 µg/mL
